Measured values: patent US20230142705A1, “USE OF ANTI-AGING GLYCOPEPTIDES FOR INHIBITION OF IMMUNE REJECTION OF A GRAFT” (PROTOKINETIX INC., priority 2020, published 2023)

Key:
[1] = tested on: CD4+ T cells; experiment: Immunohistochemistry to detect CD4+ T cells in conjunctival epithelium of dry eye disease-induced mice; type: in vivo, mouse; conditions: bilateral topical administration of 5%; for CD4+ T cells infiltration into the conjunctival epithelium: DS-induced mice, result in words
Description: Enucleated mouse eyes with intact conjunctiva were suspended in optimal cutting temperature (OCT) compound and flash frozen in liquid nitrogen. Immunohistochemistry was performed on six-micrometer frozen sections to detect and count the number of cells in conjunctival epithelium that stained positively for CD4 (clone H129.9, 10 μg/mL; BD Biosciences® cat #553647), a biotinylated secondary antibody (BD Pharmingen® cat #559286), and NovaRED® peroxidase (Vector Laboratories® cat #SK-4800). Secondary antibody alone and anti-rat isotype (clone A110-2; BD Biosciences® cat #553992) controls were also examined. Positively stained cells were counted in the GC-rich area of the conjunctiva using image analysis software (Nikon NIS Elements® software) using a 10×objective. T-cell detection and quantification was performed on Arms 1, 2, 4, and 5 only. CD4+ T cells infiltration into the conjunctival epithelium is a primary clinical indicator of dry eye disease (DED), which is used here as a proxy to study immune cell infiltration into diseased tissue suffering from […].

[2] = tested on: photoreceptor precursor cells (PPCs); experiment: Survival of AAGP-pretreated photoreceptor precursor cells after subretinal transplantation into rabbits with retinal degeneration; type: in vivo, Rabbit (Oryctolagus cuniculus); conditions: PPCs pre-treated in vitro 24 hours with 4 mg/mL; 6 months post subretinal transplantation; cyclosporine-A discontinued two weeks post transplantation; qualitative visual examination of flatmounts
Description: The objective of this study was to determine the effect of 24-hour pretreatment with anti-aging glycoprotein (AAGP™) at 4 mg/mL on the long-term (6 months) survival and functional activity of photoreceptor precursor cells (PPCs) following their subretinal transplantation into the eye of rabbits with retinal degeneration.
PPCs were generated in vitro from pluripotent human embryonic stem cells (hESCs) and incubated for 24 hours in media alone (control group) or media containing 4 mg/mL AAGP™ Following incubation, treated and untreated PPCs were labeled and injected into the subretinal space of the eye of immunosuppressed rabbits with induced retinal degeneration (4-5 rabbits/group). Animals were euthanized 6 month later, retinas were collected, and cell survival was determined in excised retinal flatmounts by imaging with confocal laser scanning system. The functional activity of transplanted cells was assessed by immunostaining for synaptic (Ribeye and Bassoon) and photoreceptor markers (Arrestin and Blue Opsin).
Retinal degeneration was induced on Day 1 of the study. […]

[3] = DS5 mice, conjunctival epithelium

C[C@H](NC(=O)[C@H](C)NC(=O)[C@@H](N)CCCCNC(=O)C(F)(F)C1(O)O[C@H](CO)[C@H](O)[C@H](O)[C@H]1O)C(=O)O.Cl (stereo partly drawn) [AAGP™]
T-Cell Density, 25% Percentile [1, 3]: 0.3767 | T-Cell Density, 75% Percentile [1, 3]: 0.7663 | T-Cell Density, Maximum [1, 3]: 1.152 | T-Cell Density, Mean [1, 3]: 0.5644 | T-Cell Density, Median [1, 3]: 0.4907 | T-Cell Density, Minimum [1, 3]: 0.2307 | CD4+ T cells infiltration into the conjunctival epithelium [1]: suppresses T-cell response | CD4+ T cells infiltration into the conjunctival epithelium ([1]; listed as PKX-001): significantly reduced | cell survival of transplanted PPCs [2]: substantial increase
